Assay results reported in ChEMBL document CHEMBL1955850, “Syntheses of structurally-simplified and fluorescently-labeled neovibsanin derivatives and analysis of their neurite outgrowth activity in PC12 cells” (2012).
The source made the active and inactive calls. The rule behind the calls is not given here.

What was measured:
[1] = test system: PC-12; assay: Neuritogenic activity in rat PC12 cells assessed as potentiation of 20 ng/ml NGF-induced neurite outgrowth at 10 uM; assay type: functional, cell-based
[2] = test system: PC-12; assay: Neuritogenic activity in rat PC12 cells assessed as potentiation of 10 ng/ml NGF-induced neurite outgrowth at 10 uM after 4 days NGF (reference value: 75.89 um); assay type: functional
[3] = test system: PC-12; assay: Neuritogenic activity in rat PC12 cells assessed as potentiation of 10 ng/ml NGF-induced neurite outgrowth at 40 uM after 4 days (reference value: 75.89 um); assay type: functional
[4] = test system: PC-12; assay: Neuritogenic activity in rat PC12 cells assessed as potentiation of 10 ng/ml NGF-induced neurite outgrowth at 1 uM after 4 days (reference value: 75.89 um); assay type: functional
[5] = test system: PC-12; assay: Neuritogenic activity in rat PC12 cells assessed as potentiation of 10 ng/ml NGF-induced neurite outgrowth at 40 uM after 96 hrs; assay type: functional, cell-based
[6] = test system: PC-12; assay: Neuritogenic activity in rat PC12 cells assessed as elongation of prominences at 40 uM after 72 hrs in presence of 10 ng/ml NGF; assay type: functional, cell-based
[7] = test system: PC-12; assay: Neuritogenic activity in rat PC12 cells assessed as change in cell morphology at 40 uM up to 24 hrs in presence of 10 ng/ml NGF; assay type: functional, cell-based
[8] = test system: PC-12; assay: Neuritogenic activity in rat PC12 cells assessed as appearance of short prominences at 40 uM after 48 hrs in presence of 10 ng/ml NGF; assay type: functional, cell-based

SMILES	Activity [1]	Activity [2] [um]	Activity [3] [um]	also measured
CC(C)=CCOC1(C)C[C@@H]2OCC3=CCCC[C@]32O1 (stereo partly drawn)	inactive			
CCO[C@]1(C)C[C@@H]2OCC3=CCCC[C@]32O1		92.24	112.5	
CC1(OCc2ccccc2)C[C@@H]2OCC3=CCCC[C@]32O1 (stereo partly drawn)	inactive			
C=CCOC1(C)C[C@@H]2OCC3=CCCC[C@]32O1 (stereo partly drawn)	inactive			
CC1(OC/C=C/c2ccccc2)C[C@@H]2OCC3=CCCC[C@]32O1 (stereo partly drawn)	inactive			
CCO[C@@]1(C)C[C@@H]2OCC3=CCCC[C@]32O1		86.03	105.8	
CO[C@@]1(C)C[C@@H]2OCC3=CCCC[C@]32O1	Active	101.6	122.4	Activity [4]: 91.58 um
CO[C@]1(C)C[C@@H]2OCC3=CCCC[C@]32O1	Active	110.9	125.5	Activity [4]: 99.5 um
CCCO[C@@]1(C)C[C@@H]2OCC3=CCCC[C@]32O1		75.46	84.11	
CCCCO[C@@]1(C)C[C@@H]2OCC3=CCCC[C@]32O1		47.69	61.81	
CCCCO[C@]1(C)C[C@@H]2OCC3=CCCC[C@]32O1		55.82	72.88	
CCCO[C@]1(C)C[C@@H]2OCC3=CCCC[C@]32O1		65.35	76.62	
COC1(C)C[C@@H]2OCC3=CCC[C@@H](CCOC(=O)Cc4cc(=O)oc5cc(N(C)C)ccc45)[C@]32O1 (stereo partly drawn)				Activity [5]: Active; Activity [6]: Active; Activity [7]: inactive; Activity [8]: Active
